Measurements from ChEMBL document CHEMBL3865849, “Development of N-(4-Phenoxyphenyl)benzenesulfonamide Derivatives as Novel Nonsteroidal Progesterone Receptor Antagonists” (ACS Med Chem Lett, 2016).

Target: Androgen receptor (Mus musculus) (UniProt P19091)
Assay: Antagonist activity at androgen receptor in mouse SC-3 cells assessed as inhibition of DHT-induced cell growth at 1 uM co-treated with DHT measured after 3 days by CCK8 assay

Chain of Androgen receptor (Mus musculus) (P19091 whole entry, looked up): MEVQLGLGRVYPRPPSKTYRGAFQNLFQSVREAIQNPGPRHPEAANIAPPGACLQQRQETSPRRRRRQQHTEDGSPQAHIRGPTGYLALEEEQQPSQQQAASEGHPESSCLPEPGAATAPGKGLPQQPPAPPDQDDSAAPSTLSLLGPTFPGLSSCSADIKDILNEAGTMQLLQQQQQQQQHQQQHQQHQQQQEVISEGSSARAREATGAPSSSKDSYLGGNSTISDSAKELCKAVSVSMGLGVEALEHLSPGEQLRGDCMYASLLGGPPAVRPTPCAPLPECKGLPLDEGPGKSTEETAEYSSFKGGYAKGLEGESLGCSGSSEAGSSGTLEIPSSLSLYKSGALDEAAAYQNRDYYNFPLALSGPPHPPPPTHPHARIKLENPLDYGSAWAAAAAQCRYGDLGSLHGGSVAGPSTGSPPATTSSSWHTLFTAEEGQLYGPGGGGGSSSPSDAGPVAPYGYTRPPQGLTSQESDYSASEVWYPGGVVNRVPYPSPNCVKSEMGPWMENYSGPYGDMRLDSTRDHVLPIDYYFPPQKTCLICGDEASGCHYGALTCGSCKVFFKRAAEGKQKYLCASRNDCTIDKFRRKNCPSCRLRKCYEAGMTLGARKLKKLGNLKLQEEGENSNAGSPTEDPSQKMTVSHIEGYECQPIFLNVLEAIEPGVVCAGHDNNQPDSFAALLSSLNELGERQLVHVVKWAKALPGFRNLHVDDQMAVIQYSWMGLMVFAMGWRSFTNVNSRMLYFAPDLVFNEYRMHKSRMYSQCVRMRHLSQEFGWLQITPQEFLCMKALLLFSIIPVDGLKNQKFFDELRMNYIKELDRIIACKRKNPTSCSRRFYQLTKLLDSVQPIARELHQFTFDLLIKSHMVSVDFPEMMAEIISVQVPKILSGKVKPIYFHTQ

Compound: O=S(=O)(Nc1ccc(Oc2ccccc2)cc1)c1cccc(Cl)c1
- inhibition: 8.4%
